According to ChEMBL document CHEMBL1150315, “Potent and orally bioavailable zwitterion GnRH antagonists with low CYP3A4 inhibitory activity” (Bioorg Med Chem Lett, 2008):

Assays:
[1] = Oral bioavailability in Sprague-Dawley rat at 10 mg/kg; assay type: ADME, organism-based; settings: in vivo
[2] = Volume of distribution in cynomolgus monkey at 10 mg/kg, iv; assay type: ADME, organism-based, Macaca fascicularis; design: dose 10 mg/kg, route intravenous; settings: in vivo
[3] = Cmax in cynomolgus monkey at 10 mg/kg, po; assay type: ADME, organism-based, Macaca fascicularis; design: dose 10 mg/kg, route oral; settings: in vivo
[4] = Clearance in cynomolgus monkey at 10 mg/kg, iv; assay type: ADME, organism-based, Macaca fascicularis; design: dose 10 mg/kg, route intravenous; settings: in vivo
[5] = Tmax in Sprague-Dawley rat at 10 mg/kg, po or 10 mg/kg, iv; assay type: ADME, organism-based; settings: in vivo
[6] = Half life in Sprague-Dawley rat at 10 mg/kg, iv; assay type: ADME, organism-based; design: dose 10 mg/kg, route intravenous; settings: in vivo
[7] = Lipophilicity, log D at pH 7.4; assay type: physicochemical; settings: buffer
[8] = Oral bioavailability in cynomolgus monkey at 10 mg/kg; assay type: ADME, organism-based, Macaca fascicularis; settings: in vivo
[9] = Cmax in Sprague-Dawley rat at 10 mg/kg, po or 10 mg/kg, iv; assay type: ADME, organism-based; settings: in vivo
[10] = AUC in cynomolgus monkey at 10 mg/kg, po; assay type: ADME, organism-based, Macaca fascicularis; design: dose 10 mg/kg, route oral; settings: plasma
[11] = Clearance in Sprague-Dawley rat at 10 mg/kg, iv; assay type: ADME, organism-based; design: dose 10 mg/kg, route intravenous; settings: in vivo
[12] = Half life in cynomolgus monkey at 10 mg/kg, iv; assay type: ADME, organism-based, Macaca fascicularis; design: dose 10 mg/kg, route intravenous; settings: in vivo
[13] = Tmax in cynomolgus monkey at 10 mg/kg, po; assay type: ADME, organism-based, Macaca fascicularis; design: dose 10 mg/kg, route oral; settings: in vivo
[14] = AUC in Sprague-Dawley rat at 10 mg/kg, po; assay type: ADME, organism-based; design: dose 10 mg/kg, route oral; settings: plasma
[15] = Volume of distribution in Sprague-Dawley rat at 10 mg/kg, iv; assay type: ADME, organism-based; design: dose 10 mg/kg, route intravenous; settings: in vivo
[16] = Dissociation constant, pKa of the compound; assay type: physicochemical

Row | bioavailability [1] [%] | Vd [2] [L/kg] | Cmax [3] [ng/mL] | clearance [4] [mL/min/kg] | Tmax [5] [min] | half-life [6] [min] | logD [7] | bioavailability [8] [%] | Cmax [9] [ng/mL] | AUC [10] [ng·h/mL] | clearance [11] [mL/min/kg] | half-life [12] [min] | Tmax [13] [min] | AUC [14] [ng·h/mL] | Vd [15] [L/kg] | pKa [16] | Structure (SMILES)
1 | 3 | 4.9 | 7870 | 7.9 | 15 | 24 | 2.1 | 52.7 | 149 | 11100 | 37.6 | 450 | 37.8 | 132 | 1.3 | – | O=C(O)CCCN[C@@H](Cn1c(=O)c(-c2ccccc2Cl)cn(Cc2c(F)cccc2C(F)(F)F)c1=O)c1ccccc1
2 | 2.4 | 1.8 | 2040 | 20.9 | 15 | 18 | 1.8 | 22.6 | 77 | 1900 | 64.1 | 60 | 30 | 63.3 | 1.7 | 4.16 | COc1cccc(-c2cn(Cc3c(F)cccc3C(F)(F)F)c(=O)n(C[C@H](NCCCC(=O)O)c3ccccc3)c2=O)c1F
